Earlier results as cited in patent publication US7815928B2, “Device for local administration of solid or semi-solid formulations and delayed-release formulations for proposal parenteral administration and preparation process” (Societe de Conseils de Recherches et d'Applications …, priority 1996, dated 2010).

System: smooth muscle cells
Conditions: after endothelial damage

heparin
proliferation of smooth muscle cells: inhibits the proliferation
